Data as given in patent US8318935B2, “Organic compounds 75074” (Novartis AG, priority 2007, dated 2012).
pIC50: −log10 of the molar value. Where a name gives a salt, the structure may show the parent alone.

Molecular target: T1, epithelial sodium channel (ENaC) (Homo sapiens, UniProt P37088+P51168+P51170)
T1 construct: host or cells: primary Human Bronchial Epithelial cells (HBECs), air-liquid interface culture
T1 sequence (P37088 1-669): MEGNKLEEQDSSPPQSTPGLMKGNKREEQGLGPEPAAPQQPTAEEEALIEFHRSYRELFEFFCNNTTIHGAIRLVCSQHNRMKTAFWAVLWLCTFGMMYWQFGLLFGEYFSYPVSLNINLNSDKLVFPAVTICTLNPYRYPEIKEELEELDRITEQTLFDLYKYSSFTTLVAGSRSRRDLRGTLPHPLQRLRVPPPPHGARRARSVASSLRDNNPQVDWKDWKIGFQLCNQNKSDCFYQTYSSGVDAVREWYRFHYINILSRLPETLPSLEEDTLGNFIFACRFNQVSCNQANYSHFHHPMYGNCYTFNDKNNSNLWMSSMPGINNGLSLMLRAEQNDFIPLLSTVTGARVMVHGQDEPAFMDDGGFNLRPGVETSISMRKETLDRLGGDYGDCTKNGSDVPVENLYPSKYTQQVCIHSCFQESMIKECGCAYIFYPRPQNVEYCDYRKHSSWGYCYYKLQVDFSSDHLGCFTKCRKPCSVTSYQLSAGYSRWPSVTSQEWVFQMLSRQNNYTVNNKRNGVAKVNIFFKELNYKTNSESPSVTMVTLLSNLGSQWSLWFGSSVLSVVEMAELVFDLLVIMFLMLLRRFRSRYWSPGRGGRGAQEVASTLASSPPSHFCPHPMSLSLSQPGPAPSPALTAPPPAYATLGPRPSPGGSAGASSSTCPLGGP
T1 sequence (P51168 1-640): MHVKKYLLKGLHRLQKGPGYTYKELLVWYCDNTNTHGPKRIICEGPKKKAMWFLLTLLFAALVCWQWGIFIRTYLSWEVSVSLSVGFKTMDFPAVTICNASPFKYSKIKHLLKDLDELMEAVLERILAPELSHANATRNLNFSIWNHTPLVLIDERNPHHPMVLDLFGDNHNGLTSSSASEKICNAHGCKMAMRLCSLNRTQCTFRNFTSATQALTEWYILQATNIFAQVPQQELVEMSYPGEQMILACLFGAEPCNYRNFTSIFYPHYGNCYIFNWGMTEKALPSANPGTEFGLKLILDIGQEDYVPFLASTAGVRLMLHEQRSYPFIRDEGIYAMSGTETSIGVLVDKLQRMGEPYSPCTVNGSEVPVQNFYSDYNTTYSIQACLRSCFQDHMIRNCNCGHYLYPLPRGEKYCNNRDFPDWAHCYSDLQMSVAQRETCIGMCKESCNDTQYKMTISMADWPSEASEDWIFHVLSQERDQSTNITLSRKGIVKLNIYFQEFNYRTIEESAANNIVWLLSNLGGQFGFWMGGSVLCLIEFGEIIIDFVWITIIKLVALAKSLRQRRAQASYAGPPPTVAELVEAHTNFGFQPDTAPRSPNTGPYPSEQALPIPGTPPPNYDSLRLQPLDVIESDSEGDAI
T1 sequence (P51170 1-649): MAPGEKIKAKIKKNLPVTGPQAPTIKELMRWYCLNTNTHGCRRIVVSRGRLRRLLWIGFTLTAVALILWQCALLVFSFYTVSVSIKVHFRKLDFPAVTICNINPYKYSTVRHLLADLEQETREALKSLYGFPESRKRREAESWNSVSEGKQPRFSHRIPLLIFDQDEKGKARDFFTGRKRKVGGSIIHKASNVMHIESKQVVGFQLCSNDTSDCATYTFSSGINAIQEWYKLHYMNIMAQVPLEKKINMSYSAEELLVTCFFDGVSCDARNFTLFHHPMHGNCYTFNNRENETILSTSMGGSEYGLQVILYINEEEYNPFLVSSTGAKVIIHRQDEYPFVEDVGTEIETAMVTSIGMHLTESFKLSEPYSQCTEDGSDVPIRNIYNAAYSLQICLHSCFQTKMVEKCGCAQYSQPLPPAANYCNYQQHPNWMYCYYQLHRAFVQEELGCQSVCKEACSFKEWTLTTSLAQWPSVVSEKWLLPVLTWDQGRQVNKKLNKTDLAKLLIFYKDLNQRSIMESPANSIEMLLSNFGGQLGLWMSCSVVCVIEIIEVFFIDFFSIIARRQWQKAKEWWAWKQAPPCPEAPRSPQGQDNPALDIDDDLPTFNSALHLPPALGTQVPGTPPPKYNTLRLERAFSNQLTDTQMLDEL
Test: Short circuit current (ISC) measurements in human bronchial epithelial cells: inhibition of the amiloride-sensitive ISC (ENaC blockade)
Format: cell-based
Conditions: Human Bronchial Epithelial cells (HBECs) at air-liquid interface, Ussing chamber, compound added to apical chamber
Protocol: Human Bronchial Epithelial cells (HBECs) (Cambrex) were cultured under air-liquid interface conditions to provide a well differentiated mucociliary phenotype.
HBECs were cultured using a modification of the method described by Gray and colleagues (Gray et al., 1996). Cells were seeded in plastic T-162 flasks and were grown in bronchial epithelial cell growth medium (BEGM; Cambrex) supplemented with bovine pituitary extract (52 μg/ml), hydrocortisone (0.5 μg/ml), human recombinant epidermal growth factor (0.5 ng/ml), epinephrine (0.5 μg/ml), transferrin (10 μg/ml), insulin (5 μg/ml), retinoic acid (0.1 μg/ml), triiodothyronine ([…]), gentamycin (50 μg/ml) and amphotericin B (50 ng/ml). Medium was changed every 48 hours until cells were 90% confluent. Cells were then passaged and seeded (8.25×10^4 cells/insert) on polycarbonate Snapwell inserts (Costar) in differentiation media containing 50% DMEM in BEGM with the same supplements as above but without triiodothyronine and a final retinoic acid concentration of 50 nM (all-trans retinoic acid). Cells were maintained submerged for the first 7 days in culture, after which time they were exposed to an apical air interface for the remainder of the culture period. At this time, media was changed to DMEM:F12 media containing 2% v/v Ultroser G for the remainder of culture. Amphotericin B was removed from all media 3 feeds prior to use in the Ussing Chambers. Cells were used between days 7 and 21 after establishment of the apical-air interface. At all stages of culture, cells were maintained at 37° C. in 5% CO2 in an air incubator.
Short Circuit Current (ISC) Measurements
Snapwell inserts were mounted in Vertical Diffusion Chambers (Costar) and were bathed with continuously gassed Ringer solution (5% CO2 in O2; pH 7.4) maintained at 37° C. containing (in mM): 120 NaCl, 25 NaHCO3, 3.3 KH2PO4, 0.8 K2HPO4, 1.2 CaCl2, 1.2 MgCl2, and 10 glucose. The solution osmolarity was between 280 and 300 mOsmol/kg H2O for all physiological salt solutions used. Cells were voltage clamped to 0 mV (model EVC4000; WPI). RT was measured by applying a 1- or 2-mV pulse at 30-s intervals and calculating RT by Ohm's law. Data were recorded using a PowerLab workstation (ADInstruments).
Test compounds were prepared as a 10 mM stock solution in DMSO (95%). Serial 3-fold dilutions were freshly prepared in an appropriate vehicle (distilled H2O or Ringers solution). The initial concentration was added to the apical chamber as a 1000× concentrate in 5 μl, resulting in a final 1× concentration the 5 ml volume of the Ussing chamber. Subsequent additions of compound were added in a 3.3 μl volume of the 1000× serially diluted stock solution. At the completion of the concentration-response experiment, amiloride (10 μM) was added into the apical chamber to enable the total amiloride-sensitive current to be measured. An amiloride control IC50 was established at the start of each experiment.
Results are expressed as the mean % inhibition of the amiloride-sensitive ISC. Concentration-response curves were plotted and IC50 values generated using GraphPad Prism 3.02. Cell inserts were typically run in duplicate and the IC50 calculated on the mean % inhibition data.

| pIC50 | SMILES |
| --- | --- |
| 8.82 | N=C(NC(=O)c1nc(Cl)c(N)nc1N)NC1CCN(C(=O)Nc2ccc(NC(=O)N3CCC(NC(=N)NC(=O)c4nc(Cl)c(N)nc4N)CC3)cc2)CC1 [Example 2, N,N′-(1,1′-(1,4-phenylenebis(azanediyl))bis(oxomethylene)bis(piperidine-4,1-diyl))bis(azanediyl)bis(iminomethylene)bis(3,5-diamino-6-chloropyrazine-2-carboxamide)hydrobromide] |
| 8.00 | N=C(NC(=O)c1nc(Cl)c(N)nc1N)NC1CCN(C(=O)c2ccc(C(=O)N3CCC(NC(=N)NC(=O)c4nc(Cl)c(N)nc4N)CC3)cc2)CC1 [Example 4, N,N′-(1,1′-(1,4-phenylene)bis(oxomethylene)bis(piperidine-4,1-diyl))bis(azanediyl)bis(iminomethylene)bis(3,5-diamino-6-chloropyrazine-2-carboxamide)hydrochloride] |
| 8.22 | N=C(NC(=O)c1nc(Cl)c(N)nc1N)NC1CCN(c2ncnc(N3CCC(NC(=N)NC(=O)c4nc(Cl)c(N)nc4N)CC3)n2)CC1 [Example 7, N,N′-(1,1′-(1,3,5-triazine-2,4-diyl)bis(piperidine-4,1-diyl))bis(azanediyl)bis(iminomethylene)bis(3,5-diamino-6-chloropyrazine-2-carboxamide)hydrochloride] |
| 9.00 | CCCCN(CCCC)CCCNc1nc(N2CCC(NC(=N)NC(=O)c3nc(Cl)c(N)nc3N)CC2)nc(N2CCC(NC(=N)NC(=O)c3nc(Cl)c(N)nc3N)CC2)n1 [Example 13, N,N′-(1,1′-(6-(3-(dibutylamino)propylamino)-1,3,5-triazine-2,4-diyl)bis(piperidine-4,1-diyl))bis(azanediyl)bis(iminomethylene)bis(3,5-diamino-6-chloropyrazine-2-carboxamide) trifluoroacetate] |
| 8.80 | N/C(=N\C(=O)c1nc(Cl)c(N)nc1N)NC1CCN(C(=O)NCCCCNC(=O)N2CCC(N/C(N)=N/C(=O)c3nc(Cl)c(N)nc3N)CC2)CC1 [Example 23, N,N′-(1,1′-(Butane-1,4-diylbis(azanediyl))bis(oxomethylene)bis(piperidine-4,1-diyl))bis(azanediyl)bis(aminomethan-1-yl-1-ylidene)bis(3,5-diamino-6-chloropyrazine-2-carboxamide) hydrobromide] |
